From patent US20240423904A1, “Systems and Methods for Controlling Chemical Reactions Using Ultrasound” (priority 2023, published 2024)

Columns and labels:
Raji cells = experiment: MTT cell viability assay on Raji cells; assay type: cell-based; conditions: Homo sapiens, 48 h, pure CPT, 2 days at 37° C.
Protocol: Raji cells were incubated in RPMI 1640 media with 10% fetal bovine serum and 1% antibacterial Penicillin/Streptomycin (PenStrep) at 37° C. and 5% CO2. An MTT colorimetric assay was used to quantify cell viability.
Raji cells were used to evaluate the effectiveness of CPT release for potential chemotherapy. Raji cells were incubated in RPMI 1640 media, with 10% fetal bovine serum and 1% antibacterial Penicillin/Streptomycin (PenStrep) at 37° C. and 5% CO2. The instructions provided by the manufacturer (Abcam) were followed to perform the MTT assay. Approximately 10,000 Raji cells suspended in 150 μL of media were seeded into each well of a 96-well plate. Subsequently, 50 μL of polymer sample (or pure CPT) at varying concentrations was added to corresponding wells. For calibration purposes, wells without cells and wells with only cells and media were also prepared, representing 0% and 100% cell viability, respectively. After 48 hours of incubation, cells were spun down inside the plate and media were carefully aspirated. Then 50 μL of serum free media and 50 μL of MTT solution were added to each well. Following a 3 h incubation, 150 μL MTT solution was added to each well. […] The absorbance at 590 nm was measured by a microplate reader (TECAN Spark) to quantify the cell viability in each well. Cell viability is calculated using eq.

[1] = Stability of free CPT upon exposure to FUS, HPLC; assay type: physicochemical; conditions: FUS 10 min, presence or absence of GVs (1.4 nM)
Protocol: Experiments were performed in duplicate on a sample of CPT in water (˜3 μM). After insonation, samples were diluted 3:1 with a stock solution of IS (40 μM) and concentrations were determined from integration of the peak corresponding to CPT relative to that of the internal standard and scaled by 4/3 to account for dilution.

[2] = Thermally activated release of camptothecin from mechanophore bis-initiator, 1H NMR and LCMS; assay type: physicochemical; conditions: 24 h at 100° C. in toluene-d8, then diluted into 3:1 acetonitrile/methanol
Protocol: Several embodiments provide confirmation of CPT release via ^1H NMR spectroscopy and LCMS. Prior to mechanochemical activation studies, we first confirmed that camptothecin was released in polar protic solvent upon unmasking of the expected unstable furfuryl carbonate. To enable characterization, the furfuryl carbonate species was generated thermally from small molecule initiator 1-CPT. Masked furfuryl carbonate 1-CPT was dissolved in toluene-d8 and analyzed by ^1H NMR spectroscopy before and after heating for 24 h at 100° C. Comparison to spectrum of the expected maleimide fragment confirmed significant thermal retro-Diels-Alder reaction occurred under these conditions. A drop of this solution was then diluted into 3:1 acetonitrile/methanol and analyzed by LCMS (gradient of 0-50% acetonitrile/water over 4 minutes).

SMILES	EC50 (Raji cells)	stability upon exposure to FUS [1]	release of CPT after thermal retro-Diels-Alder reaction [2]
CC[C@@]1(O)C(=O)OCc2c1cc1n(c2=O)Cc2cc3ccccc3nc2-1 [CPT, camptothecin]	~0.025 µM	stable	
CC[C@@]1(OC(=O)OC(C)[C@]23O[C@](COC(=O)C(C)(C)Br)(C=C2Oc2ccccc2)[C@@H]2C(=O)N(CCOC(=O)C(C)(C)Br)C(=O)[C@@H]23)C(=O)OCc2c1cc1n(c2=O)Cc2cc3ccccc3nc2-1 (stereo partly drawn) [1-CPT, ((3aR,4R,7S,7aS)-2-(2-((2-bromo-2-methylpropanoyl)oxy)ethyl)-7-(1-(((((S)-4-ethyl-3,14-dioxo-3,4,12,14-tetrahydro-1H-pyrano[3′,4′:6,7]indolizino[1,2-b]quinolin-4-yl)oxy)carbonyl)oxy)ethyl)-1,3-dioxo-6-phenoxy-1,2,3,3a,7,7a-hexahydro-4H-4,7-epoxyisoindol-4-yl)methyl 2-bromo-2-methylpropanoatebromo-2-methylpropanoate]			CPT is released
